# Source: US20210078988A1, “MODULATORS OF INDOLEAMINE 2,3-DIOXYGENASE” (GLAXOSMITHKLINE INTELLECTUAL PROPERTY DEVELOPMENT LIMITED, priority 2017, published 2021)
# Molecular target: T1, indoleamine 2, 3-dioxygenase (IDO1) (Homo sapiens, UniProt P14902)
# T1 construct: human peripheral blood mononuclear cells (PBMC) (PB003F; host or cells: human PBMC stimulated with IFN-gamma and LPS
# Test: PBMC IDO1 assay (kynurenine detection via mass spectrometry)
# Type: cell-based
# Settings: human PBMC stimulated with IFN-γ and LPS, 2 days, kynurenine by mass spectrometry; read-out: IDO1 PBMC pIC50 (converted)
# In short: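 Human PBMCs (50,000/well) stimulated with IFN-γ 100 ng/ml and LPS 50 ng/ml were exposed to 11-point 3-fold compound dilutions for 2 days at 37 °C. Supernatant kynurenine was quantified by RapidFire MS relative to an internal standard; parallel CellTiter-Glo ATP luminescence measured cytotoxicity, with four-parameter curve fitting.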
# T1 sequence (P14902 whole entry): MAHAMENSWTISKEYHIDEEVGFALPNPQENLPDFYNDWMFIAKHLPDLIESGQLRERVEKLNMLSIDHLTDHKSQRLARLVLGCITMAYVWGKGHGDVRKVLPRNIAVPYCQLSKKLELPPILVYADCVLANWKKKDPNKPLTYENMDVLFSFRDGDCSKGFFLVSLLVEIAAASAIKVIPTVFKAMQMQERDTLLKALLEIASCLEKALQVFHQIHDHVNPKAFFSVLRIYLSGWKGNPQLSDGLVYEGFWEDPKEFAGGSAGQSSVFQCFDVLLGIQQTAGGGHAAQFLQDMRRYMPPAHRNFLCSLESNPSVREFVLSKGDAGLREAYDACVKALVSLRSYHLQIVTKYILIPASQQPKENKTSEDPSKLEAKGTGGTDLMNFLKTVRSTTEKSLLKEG
row,Compound,IC50 [nM]
1,"O=C(NC(CC1CCN(C(=O)Oc2ccccc2)CC1)c1ccccc1)c1ccc(F)cc1 (stereo not shown) [Example 121, phenyl 4-(2-(4-fluorobenzamido)-2-phenylethyl)piperidine-1-carboxylate]",39.8
2,"CCN(CC)c1ccc(C(CC2CCN(C(=O)OC(C)(C)C)CC2)NC(=O)c2ccc(F)cc2)cn1 (stereo not shown) [Example 122, tert-butyl 4-(2-(6-(diethylamino)pyridin-3-yl)-2-(4-fluorobenzamido)ethyl)piperidine-1-carboxylate]",39.8
3,"COc1ccc(C(=O)N[C@@H](CC2CCN(C(=O)OC(C)(C)C)CC2)c2ccccc2)cn1 [Example 123, (S)-tert-butyl 4-(2-(6-methoxynicotinamido)-2-phenylethyl)piperidine-1-carboxylate]",39.8
4,"CC(C)c1ccc(C(=O)NC(CC2CCN(C(=O)OC(C)(C)C)CC2)c2ccccc2)s1 (stereo not shown) [Example 124, tert-butyl 4-(2-(5-isopropylthiophene-2-carboxamido)-2-phenylethyl)piperidine-1-carboxylate]",39.8
5,"CC(C)COC(=O)N1CCC(CC(NC(=O)c2ccc(Cl)cc2)c2ccccc2)CC1 (stereo not shown) [Example 125, isobutyl 4-(2-(4-chlorobenzamido)-2-phenylethyl)piperidine-1-carboxylate]",39.8
6,"CC(C)(C)OC(=O)N1CCC(CC(NC(=O)c2ccc(Br)cc2)C2CCCC2)CC1 (stereo not shown) [Example 126, tert-butyl 4-(2-(4-bromobenzamido)-2-cyclopentylethyl)piperidine-1-carboxylate]",39.8
7,"CCNc1nnc(C(CC2CCN(C(=O)OC(C)(C)C)CC2)NC(=O)c2ccc(Cl)s2)o1 (stereo not shown) [Example 127, tert-butyl 4-(2-(5-chlorothiophene-2-carboxamido)-2-(5-(ethylamino)-1,3,4-oxadiazol-2-yl)ethyl)piperidine-1-carboxylate]",39.8
8,"CC(C)(C)OC(=O)N1CCC(CC(NC(=O)c2csc(Cl)c2)c2ccccc2)CC1 (stereo not shown) [Example 128, tert-butyl 4-(2-(5-chlorothiophene-3-carboxamido)-2-phenylethyl)piperidine-1-carboxylate]",39.8
9,"CC(C)(C)OC(=O)N1CCC(C[C@@H](CCN2CCOCC2)NC(=O)c2ccc(Cl)s2)CC1 [Example 129, (S)-tert-butyl 4-(2-(5-chlorothiophene-2-carboxamido)-4-morpholinobutyl)piperidine-1-carboxylate]",39.8
10,"Cc1ccc(C(=O)NC(CC2CCN(C(=O)OC(C)(C)C)CC2)c2ccccc2)cc1 (stereo not shown) [Example 130, tert-butyl 4-(2-(4-methylbenzamido)-2-phenylethyl)piperidine-1-carboxylate]",50.1
11,"CC(C)(C)OC(=O)N1CCC(CC(NC(=O)c2cccs2)c2ccccc2)CC1 (stereo not shown) [Example 131, tert-butyl 4-(2-phenyl-2-(thiophene-2-carboxamido)ethyl)piperidine-1-carboxylate]",50.1
12,"CC(C)(C)OC(=O)N1CCC(CC(NC(=O)c2ccc(F)cc2)c2ccc(OC3CCCCC3)nc2)CC1 (stereo not shown) [Example 132, tert-butyl 4-(2-(6-(cyclohexyloxy)pyridin-3-yl)-2-(4-fluorobenzamido)ethyl)piperidine-1-carboxylate]",50.1
13,"CC(C)(C)OC(=O)N1CCC(CC(NC(=O)c2ccc(C3CC3)c(F)c2)c2ccccc2)CC1 (stereo not shown) [Example 133, tert-butyl 4-(2-(4-cyclopropyl-3-fluorobenzamido)-2-phenylethyl)piperidine-1-carboxylate]",50.1
14,"COC(=O)N1CCC(CC(NC(=O)c2ccc(Cl)cc2)c2ccccc2)CC1 (stereo not shown) [Example 134, methyl 4-(2-(4-chlorobenzamido)-2-phenylethyl)piperidine-1-carboxylate]",50.1
15,"CC(C)(C)OC(=O)N1CCC(CC(NC(=O)c2ccc(Cl)cc2)C2CCCCC2)CC1 (stereo not shown) [Example 135, tert-butyl 4-(2-(4-chlorobenzamido)-2-cyclohexylethyl)piperidine-1-carboxylate]",50.1
16,"Cc1ccc(C(=O)NC(CC2CCN(C(=O)C(F)(F)c3ccccn3)CC2)c2ccccc2)s1 (stereo not shown) [Example 136, N-(2-(1-(2,2-difluoro-2-(pyridin-2-yl)acetyl)piperidin-4-yl)-1-phenylethyl)-5-methylthiophene-2-carboxamide]",50.1
17,"Cc1ccc(C(=O)NC(CC2CCN(c3ccccc3)CC2)c2ccccc2)s1 (stereo not shown) [Example 137, 5-methyl-N-(1-phenyl-2-(1-phenylpiperidin-4-yl)ethyl)thiophene-2-carboxamide]",50.1
18,"CC(C)(C)OC(=O)N1CCC(CC(NC(=O)c2ccccc2)c2ccccc2)CC1 (stereo not shown) [Example 138, tert-butyl 4-(2-benzamido-2-phenylethyl)piperidine-1-carboxylate]",63.1
19,"Cc1ccc(C(=O)NC(CC2CCN(C(=O)OC(C)(C)C)CC2)c2ccccc2)cc1F (stereo not shown) [Example 139, tert-butyl 4-(2-(3-fluoro-4-methylbenzamido)-2-phenylethyl)piperidine-1-carboxylate]",63.1
20,"CN(Cc1ccccc1)c1nnc(C(CC2CCN(C(=O)OC(C)(C)C)CC2)NC(=O)c2ccc(Cl)s2)o1 (stereo not shown) [Example 140, tert-butyl 4-(2-(5-(benzyl(methyl)amino)-1,3,4-oxadiazol-2-yl)-2-(5-chlorothiophene-2-carboxamido)ethyl)piperidine-1-carboxylate]",63.1
21,"CC(C)(C)OC(=O)N1CCC(CC(NC(=O)c2ccc(C#N)cc2)c2ccccc2)CC1 (stereo not shown) [Example 141, tert-butyl 4-(2-(4-cyanobenzamido)-2-phenylethyl)piperidine-1-carboxylate]",63.1
22,"CC(C)(C)OC(=O)N1CCC(CC(CNCc2ccccc2)NC(=O)c2ccc(F)cc2)CC1 (stereo not shown) [Example 142, tert-butyl 4-(3-(benzylamino)-2-(4-fluorobenzamido)propyl)piperidine-1-carboxylate]",63.1
23,"COc1ccc(C(=O)NC(CC2CCN(C(=O)OC(C)(C)C)CC2)c2ccccc2)cc1 (stereo not shown) [Example 143, tert-butyl 4-(2-(4-methoxybenzamido)-2-phenylethyl)piperidine-1-carboxylate]",79.4
24,"CC(C)Oc1ccc(C(CC2CCN(C(=O)OC(C)(C)C)CC2)NC(=O)c2ccc(F)cc2)cn1 (stereo not shown) [Example 144, tert-butyl 4-(2-(4-fluorobenzamido)-2-(6-isopropoxypyridin-3-yl)ethyl)piperidine-1-carboxylate]",79.4
25,"COC(=O)N1CCC(CC(NC(=O)c2ccc(F)cc2)c2ccc(OC)nc2)CC1 (stereo not shown) [Example 145, methyl 4-(2-(4-fluorobenzamido)-2-(6-methoxypyridin-3-yl)ethyl)piperidine-1-carboxylate]",79.4
26,"CC(C)(C)OC(=O)N1CCC(CC(NC(=O)c2cccc(F)c2)c2ccccc2)CC1 (stereo not shown) [Example 146, tert-butyl 4-(2-(3-fluorobenzamido)-2-phenylethyl)piperidine-1-carboxylate]",79.4
27,"CC(C)(C)OC(=O)N1CCC(CC(NC(=O)c2ccc(F)c(F)c2)c2ccccc2)CC1 (stereo not shown) [Example 147, tert-butyl 4-(2-(3,4-difluorobenzamido)-2-phenylethyl)piperidine-1-carboxylate]",79.4
28,"CC(C)(C)OC(=O)N1CCC(C[C@H](Nc2nc3ccc(Cl)cc3o2)C2CC2)CC1 [Example 148, (S)-tert-butyl 4-(2-((6-chlorobenzo[d]oxazol-2-yl)amino)-2-cyclopropylethyl)piperidine-1-carboxylate]",79.4
